Measured values published in ChEMBL document CHEMBL3044921, “Synthesis, characterization, and SAR studies of new (1H-indol-3-yl)alkyl-3-(1H-indol-3-yl)propanamide derivatives as possible antimicrobial and antitubercular agents” (2013).
Converted amounts (≈) assume the structure as drawn.

Each compound was assayed on Talaromyces marneffei (assay: Antifungal activity against Talaromyces marneffei assessed as growth inhibition at […] to […] ug/ml after 3 to 4 days by agar well diffusion method). Conditions: not given.
Assay type: functional

SMILES | diameter of the inhibition zone (DIZ) [mm]
Cn1cc(CCC(=O)NCc2cn(C)c3ccc(Cl)cc23)c2cc(Cl)ccc21 | 11
O=C(CCc1c[nH]c2ccc(Cl)cc12)NCc1c[nH]c2ccc(Cl)cc12 | <10

These compounds were tested on Aspergillus fumigatus (assay: Antifungal activity against Aspergillus fumigatus NCIM 902 assessed as growth inhibition at […] to […] ug/ml after 3 to 4 days by agar well diffusion method). Conditions: not given.
Assay type: functional

SMILES | diameter of the inhibition zone (DIZ) [mm]
Cn1cc(CCC(=O)NCc2cn(C)c3ccc(Cl)cc23)c2cc(Cl)ccc21 | <10
O=C(CCc1c[nH]c2ccc(Cl)cc12)NCc1c[nH]c2ccc(Cl)cc12 | 16

The compounds below were run on Aspergillus flavus (assay: Antifungal activity against Aspergillus flavus NCIM 524 assessed as growth inhibition at […] to […] ug/ml after 3 to 4 days by agar well diffusion method). Conditions: not given.
Assay type: functional

SMILES | diameter of the inhibition zone (DIZ) [mm]
Cn1cc(CCC(=O)NCc2cn(C)c3ccc(Cl)cc23)c2cc(Cl)ccc21 | <10
O=C(CCc1c[nH]c2ccc(Cl)cc12)NCc1c[nH]c2ccc(Cl)cc12 | <10

What follows are compounds tested on Candida albicans (assay: Antifungal activity against Candida albicans assessed as growth inhibition after 3 to 4 days by serial plate dilution method). Conditions: not given.
Assay type: functional

SMILES | MIC [µg/mL]
Cn1cc(CCC(=O)NCc2cn(C)c3ccc(Cl)cc23)c2cc(Cl)ccc21 | 25 (≈ 60.3 µM)
O=C(CCc1c[nH]c2ccc(Cl)cc12)NCc1c[nH]c2ccc(Cl)cc12 | 25 (≈ 64.7 µM)

What follows are compounds tested on Trichophyton mentagrophytes (assay: Antifungal activity against Trichophyton mentagrophytes assessed as growth inhibition after 3 to 4 days by serial plate dilution method). Conditions: not given.
Assay type: functional

SMILES | MIC [µg/mL]
Cn1cc(CCC(=O)NCc2cn(C)c3ccc(Cl)cc23)c2cc(Cl)ccc21 | 25 (≈ 60.3 µM)
O=C(CCc1c[nH]c2ccc(Cl)cc12)NCc1c[nH]c2ccc(Cl)cc12 | 6.25 (≈ 16.2 µM)

These compounds were tested on Talaromyces marneffei (assay: Antifungal activity against Talaromyces marneffei assessed as growth inhibition after 3 to 4 days by serial plate dilution method). Conditions: not given.
Assay type: functional

SMILES | MIC [µg/mL]
Cn1cc(CCC(=O)NCc2cn(C)c3ccc(Cl)cc23)c2cc(Cl)ccc21 | 12.5 (≈ 30.2 µM)
O=C(CCc1c[nH]c2ccc(Cl)cc12)NCc1c[nH]c2ccc(Cl)cc12 | 25 (≈ 64.7 µM)

These compounds were tested on Aspergillus fumigatus (assay: Antifungal activity against Aspergillus fumigatus NCIM 902 assessed as growth inhibition after 3 to 4 days by serial plate dilution method). Conditions: not given.
Assay type: functional

SMILES | MIC [µg/mL]
Cn1cc(CCC(=O)NCc2cn(C)c3ccc(Cl)cc23)c2cc(Cl)ccc21 | 25 (≈ 60.3 µM)
O=C(CCc1c[nH]c2ccc(Cl)cc12)NCc1c[nH]c2ccc(Cl)cc12 | 6.25 (≈ 16.2 µM)

The compounds below were run on Aspergillus flavus (assay: Antifungal activity against Aspergillus flavus NCIM 524 assessed as growth inhibition after 3 to 4 days by serial plate dilution method). Conditions: not given.
Assay type: functional

SMILES | MIC [µg/mL]
Cn1cc(CCC(=O)NCc2cn(C)c3ccc(Cl)cc23)c2cc(Cl)ccc21 | 25 (≈ 60.3 µM)
O=C(CCc1c[nH]c2ccc(Cl)cc12)NCc1c[nH]c2ccc(Cl)cc12 | 25 (≈ 64.7 µM)

Each compound was assayed on Streptococcus pyogenes. Conditions: not given.
Assay type: functional

SMILES | diameter of the inhibition zone (DIZ) [mm]
Cn1cc(CCC(=O)NCc2cn(C)c3ccc(Cl)cc23)c2cc(Cl)ccc21 | <10
O=C(CCc1c[nH]c2ccc(Cl)cc12)NCc1c[nH]c2ccc(Cl)cc12 | 11

What follows are compounds tested on Klebsiella pneumoniae. Conditions: not given.
Assay type: functional

SMILES | diameter of the inhibition zone (DIZ) [mm]
Cn1cc(CCC(=O)NCc2cn(C)c3ccc(Cl)cc23)c2cc(Cl)ccc21 | 11
O=C(CCc1c[nH]c2ccc(Cl)cc12)NCc1c[nH]c2ccc(Cl)cc12 | 16

Each compound was assayed on Pseudomonas aeruginosa. Conditions: not given.
Assay type: functional, ATCC 27853

SMILES | diameter of the inhibition zone (DIZ) [mm]
Cn1cc(CCC(=O)NCc2cn(C)c3ccc(Cl)cc23)c2cc(Cl)ccc21 | 11
O=C(CCc1c[nH]c2ccc(Cl)cc12)NCc1c[nH]c2ccc(Cl)cc12 | 16

These compounds were tested on Staphylococcus aureus. Conditions: not given.
Assay type: functional, ATCC 25923

SMILES | diameter of the inhibition zone (DIZ) [mm]
Cn1cc(CCC(=O)NCc2cn(C)c3ccc(Cl)cc23)c2cc(Cl)ccc21 | <10
O=C(CCc1c[nH]c2ccc(Cl)cc12)NCc1c[nH]c2ccc(Cl)cc12 | 16

Each compound was assayed on Streptococcus pyogenes (assay: Antibacterial activity against Streptococcus pyogenes assessed as growth inhibition after 16 to 18 hr by serial plate dilution method). Conditions: not given.
Assay type: functional

SMILES | MIC [µg/mL]
Cn1cc(CCC(=O)NCc2cn(C)c3ccc(Cl)cc23)c2cc(Cl)ccc21 | 25 (≈ 60.3 µM)
O=C(CCc1c[nH]c2ccc(Cl)cc12)NCc1c[nH]c2ccc(Cl)cc12 | 12.5 (≈ 32.4 µM)

What follows are compounds tested on Mycolicibacterium fortuitum (assay: Antitubercular activity against Mycobacterium fortuitum ATCC 19542 assessed as growth inhibition at 0.3125 to 5 ug/mL after 7 days by resazurin reduction test). Conditions: ATCC 19542, 168 h.
Assay type: functional

SMILES | MIC [µg/mL]
Cn1cc(CCC(=O)NCc2cn(C)c3ccc(Cl)cc23)c2cc(Cl)ccc21 | 10 (≈ 24.1 µM)
O=C(CCc1c[nH]c2ccc(Cl)cc12)NCc1c[nH]c2ccc(Cl)cc12 | 10 (≈ 25.9 µM)

Each compound was assayed on Mycolicibacterium smegmatis (assay: Antitubercular activity against Mycobacterium smegmatis ATCC 19420 assessed as growth inhibition at 0.3125 to 5 ug/mL after 7 days by resazurin reduction test). Conditions: ATCC 19420, 168 h.
Assay type: functional

SMILES | MIC [µg/mL]
Cn1cc(CCC(=O)NCc2cn(C)c3ccc(Cl)cc23)c2cc(Cl)ccc21 | 10 (≈ 24.1 µM)
O=C(CCc1c[nH]c2ccc(Cl)cc12)NCc1c[nH]c2ccc(Cl)cc12 | 1.25 (≈ 3.24 µM)

What follows are compounds tested on Mycobacterium tuberculosis (assay: Antitubercular activity against Mycobacterium tuberculosis H37Rv ATCC 27294 assessed as growth inhibition at 0.3125 to 5 ug/mL after 7 days by resazurin reduction test). Conditions: H37Rv ATCC 27294, 168 h.
Assay type: functional

SMILES | MIC [µg/mL]
Cn1cc(CCC(=O)NCc2cn(C)c3ccc(Cl)cc23)c2cc(Cl)ccc21 | 10 (≈ 24.1 µM)
O=C(CCc1c[nH]c2ccc(Cl)cc12)NCc1c[nH]c2ccc(Cl)cc12 | 0.625 (≈ 1.62 µM)

What follows are compounds tested on Mycolicibacterium smegmatis (assay: Antitubercular activity against Mycobacterium smegmatis ATCC 19420 assessed as growth inhibition at 1 to 100 ug/mL after 7 days by resazurin reduction test). Conditions: ATCC 19420, 168 h.
Assay type: functional

SMILES | MIC [µg/mL]
Cn1cc(CCC(=O)NCc2cn(C)c3ccc(Cl)cc23)c2cc(Cl)ccc21 | > 100
O=C(CCc1c[nH]c2ccc(Cl)cc12)NCc1c[nH]c2ccc(Cl)cc12 | 1 (≈ 2.59 µM)

These compounds were tested on Mycolicibacterium fortuitum (assay: Antitubercular activity against Mycobacterium fortuitum ATCC 19542 assessed as growth inhibition at 1 to 100 ug/mL after 7 days by resazurin reduction test). Conditions: ATCC 19542, 168 h.
Assay type: functional

SMILES | MIC [µg/mL]
Cn1cc(CCC(=O)NCc2cn(C)c3ccc(Cl)cc23)c2cc(Cl)ccc21 | 10 (≈ 24.1 µM)
O=C(CCc1c[nH]c2ccc(Cl)cc12)NCc1c[nH]c2ccc(Cl)cc12 | 10 (≈ 25.9 µM)

These compounds were tested on Mycobacterium tuberculosis (assay: Antitubercular activity against Mycobacterium tuberculosis H37Rv ATCC 27294 assessed as growth inhibition at 1 to 100 ug/mL after 7 days by resazurin reduction test). Conditions: not given.
Assay type: functional

SMILES | growth inhibition (GI) [%]
Cn1cc(CCC(=O)NCc2cn(C)c3ccc(Cl)cc23)c2cc(Cl)ccc21 | <90
O=C(CCc1c[nH]c2ccc(Cl)cc12)NCc1c[nH]c2ccc(Cl)cc12 | 90

Same assay, conditions: Mycobacterium tuberculosis, H37Rv ATCC 27294, 168 h

SMILES | MIC [µg/mL]
Cn1cc(CCC(=O)NCc2cn(C)c3ccc(Cl)cc23)c2cc(Cl)ccc21 | > 100
O=C(CCc1c[nH]c2ccc(Cl)cc12)NCc1c[nH]c2ccc(Cl)cc12 | 1 (≈ 2.59 µM)

The compounds below were run on Candida albicans (assay: Antifungal activity against Candida albicans assessed as growth inhibition at […] to […] ug/ml after 3 to 4 days by agar well diffusion method). Conditions: not given.
Assay type: functional

SMILES | diameter of the inhibition zone (DIZ) [mm]
Cn1cc(CCC(=O)NCc2cn(C)c3ccc(Cl)cc23)c2cc(Cl)ccc21 | <10
O=C(CCc1c[nH]c2ccc(Cl)cc12)NCc1c[nH]c2ccc(Cl)cc12 | <10

What follows are compounds tested on Trichophyton mentagrophytes (assay: Antifungal activity against Trichophyton mentagrophytes assessed as growth inhibition at […] to […] ug/ml after 3 to 4 days by agar well diffusion method). Conditions: not given.
Assay type: functional

SMILES | diameter of the inhibition zone (DIZ) [mm]
Cn1cc(CCC(=O)NCc2cn(C)c3ccc(Cl)cc23)c2cc(Cl)ccc21 | <10
O=C(CCc1c[nH]c2ccc(Cl)cc12)NCc1c[nH]c2ccc(Cl)cc12 | 16

These compounds were tested on Klebsiella pneumoniae (assay: Antibacterial activity against Klebsiella pneumoniae assessed as growth inhibition after 16 to 18 hr by serial plate dilution method). Conditions: not given.
Assay type: functional

SMILES | MIC [µg/mL]
Cn1cc(CCC(=O)NCc2cn(C)c3ccc(Cl)cc23)c2cc(Cl)ccc21 | 12.5 (≈ 30.2 µM)
O=C(CCc1c[nH]c2ccc(Cl)cc12)NCc1c[nH]c2ccc(Cl)cc12 | 6.25 (≈ 16.2 µM)

The compounds below were run on Pseudomonas aeruginosa (assay: Antibacterial activity against Pseudomonas aeruginosa ATCC 27853 assessed as growth inhibition after 16 to 18 hr by serial plate dilution method). Conditions: not given.
Assay type: functional

SMILES | MIC [µg/mL]
Cn1cc(CCC(=O)NCc2cn(C)c3ccc(Cl)cc23)c2cc(Cl)ccc21 | 12.5 (≈ 30.2 µM)
O=C(CCc1c[nH]c2ccc(Cl)cc12)NCc1c[nH]c2ccc(Cl)cc12 | 6.25 (≈ 16.2 µM)

These compounds were tested on Escherichia coli (assay: Antibacterial activity against Escherichia coli […] assessed as growth inhibition after 16 to 18 hr by serial plate dilution method). Conditions: not given.
Assay type: functional

SMILES | MIC [µg/mL]
Cn1cc(CCC(=O)NCc2cn(C)c3ccc(Cl)cc23)c2cc(Cl)ccc21 | 12.5 (≈ 30.2 µM)
O=C(CCc1c[nH]c2ccc(Cl)cc12)NCc1c[nH]c2ccc(Cl)cc12 | 6.25 (≈ 16.2 µM)

These compounds were tested on Staphylococcus aureus (assay: Antibacterial activity against Staphylococcus aureus ATCC 25923 assessed as growth inhibition after 16 to 18 hr by serial plate dilution method). Conditions: not given.
Assay type: functional

SMILES | MIC [µg/mL]
Cn1cc(CCC(=O)NCc2cn(C)c3ccc(Cl)cc23)c2cc(Cl)ccc21 | 25 (≈ 60.3 µM)
O=C(CCc1c[nH]c2ccc(Cl)cc12)NCc1c[nH]c2ccc(Cl)cc12 | 6.25 (≈ 16.2 µM)

These compounds were tested on Escherichia coli. Conditions: not given.
Assay type: functional, ATCC 24922

SMILES | diameter of the inhibition zone (DIZ) [mm]
Cn1cc(CCC(=O)NCc2cn(C)c3ccc(Cl)cc23)c2cc(Cl)ccc21 | 11
O=C(CCc1c[nH]c2ccc(Cl)cc12)NCc1c[nH]c2ccc(Cl)cc12 | 16
